# According to ChEMBL document CHEMBL1201862, “PubChem BioAssay data set” (2004):
#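 How tested: cells in 96-well plates exposed to compound for 48 hours at five concentrations. GI50 marks 50% less growth.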 The source made the active and inactive calls. Rule as the data show it: active = GI50 up to about 1.1 µM and inactive = higher.
# Key:
# Assay in all cases: NCI tumour cell line growth inhibition, 48 h
# [1] = test system: NCI/ADR-RES
# [2] = test system: UACC-257
# [3] = test system: OVCAR-3
# [4] = test system: NCI-H226
# [5] = test system: 786-0
# [6] = test system: RXF 393
# [7] = test system: HCT-116
# [8] = test system: SF-539
# [9] = test system: OVCAR-8
# [10] = test system: SW-620
# [11] = test system: SK-MEL-28
# [12] = test system: UO-31
# [13] = test system: OVCAR-4
# [14] = test system: A549
# [15] = test system: CCRF-CEM
# [16] = test system: RPMI-8226
# [17] = test system: SK-OV-3
# [18] = test system: MOLT-4
# [19] = test system: K562
SMILES,GI50 [1],GI50 [2],GI50 [3],GI50 [4],GI50 [5],GI50 [6],GI50 [7],GI50 [8],GI50 [9],GI50 [10],GI50 [11],GI50 [12],GI50 [13],GI50 [14],GI50 [15],GI50 [16],GI50 [17],GI50 [18],GI50 [19]
N#C[BH2-][n+]1cn(C2CC(O)C(COP(=O)(O)OC3CC(n4cnc5c(N)ncnc54)OC3CO)O2)c2nc(N)[nH]c(=O)c21 (stereo not drawn),> 100 µM (inactive),> 100 µM (inactive),> 100 µM (inactive),> 100 µM (inactive),> 100 µM (inactive),> 100 µM (inactive),> 100 µM (inactive),> 100 µM (inactive),> 100 µM (inactive),> 100 µM (inactive),> 100 µM (inactive),> 100 µM (inactive),> 100 µM (inactive),> 100 µM (inactive),> 100 µM (inactive),,,,
O=C(O)CCCc1ccc2ccccc2c1,> 100 µM (inactive),> 100 µM (inactive),> 100 µM (inactive),,> 100 µM (inactive),> 100 µM (inactive),> 100 µM (inactive),> 100 µM (inactive),> 100 µM (inactive),> 100 µM (inactive),> 100 µM (inactive),> 100 µM (inactive),> 100 µM (inactive),> 100 µM (inactive),> 100 µM (inactive),42.9 µM (inactive),> 100 µM (inactive),> 100 µM (inactive),> 100 µM (inactive)
COc1ccc2c(c1)-c1nc(=O)n(CCCN(C)C)c3ccc([N+](=O)[O-])c(c13)N2,1.88 µM (inactive),1.04 µM (active),2.13 µM (inactive),3.81 µM (inactive),0.466 µM (active),,0.293 µM (active),0.421 µM (active),0.724 µM (active),0.282 µM (active),1.19 µM (inactive),0.682 µM (active),1.77 µM (inactive),0.469 µM (active),0.117 µM (active),0.231 µM (active),1.29 µM (inactive),0.215 µM (active),0.0811 µM (active)
N[C@@H](CCC(=O)NCP(=O)(O)O)C(=O)O,> 100 µM (inactive),> 100 µM (inactive),> 100 µM (inactive),,> 100 µM (inactive),,> 100 µM (inactive),> 100 µM (inactive),> 100 µM (inactive),> 100 µM (inactive),> 100 µM (inactive),> 100 µM (inactive),,> 100 µM (inactive),,> 100 µM (inactive),,> 100 µM (inactive),> 100 µM (inactive)
O=C1Nc2c(Cl)cc(Cl)cc2C1=O,19.7 µM (inactive),18.6 µM (inactive),20.3 µM (inactive),18.5 µM (inactive),17.3 µM (inactive),13.6 µM (inactive),19.3 µM (inactive),17.2 µM (inactive),16.9 µM (inactive),18.5 µM (inactive),17.7 µM (inactive),19.3 µM (inactive),17.8 µM (inactive),19.3 µM (inactive),21.3 µM (inactive),,77.4 µM (inactive),18 µM (inactive),29.2 µM (inactive)
O=C(Nc1ccccc1)n1[nH]c(=O)n(-c2ccccc2)c1=O,> 100 µM (inactive),> 100 µM (inactive),,> 100 µM (inactive),> 100 µM (inactive),,> 100 µM (inactive),> 100 µM (inactive),> 100 µM (inactive),> 100 µM (inactive),> 100 µM (inactive),> 100 µM (inactive),> 100 µM (inactive),> 100 µM (inactive),> 100 µM (inactive),> 100 µM (inactive),> 100 µM (inactive),,> 100 µM (inactive)
NS(=O)(=O)c1cc(Cl)c(NC(=S)NC(=O)Nc2ccc(Cl)c(Cl)c2)c(Cl)c1,37.4 µM (inactive),29.9 µM (inactive),39.6 µM (inactive),30.8 µM (inactive),39 µM (inactive),41.3 µM (inactive),35.7 µM (inactive),28.6 µM (inactive),47.6 µM (inactive),58.1 µM (inactive),84.3 µM (inactive),44.1 µM (inactive),47.4 µM (inactive),30.5 µM (inactive),6.97 µM (inactive),,77.4 µM (inactive),30.5 µM (inactive),35.2 µM (inactive)
CCOC(=O)c1c(C)nc2c(c1-c1cn(-c3ccccc3)nc1-c1ccccc1)C(=O)c1ccccc1-2,> 100 µM (inactive),> 100 µM (inactive),> 100 µM (inactive),> 100 µM (inactive),> 100 µM (inactive),> 100 µM (inactive),> 100 µM (inactive),,> 100 µM (inactive),> 100 µM (inactive),> 100 µM (inactive),,> 100 µM (inactive),> 100 µM (inactive),> 100 µM (inactive),,> 100 µM (inactive),> 100 µM (inactive),> 100 µM (inactive)
